Measurements: the NIST ThermoML archive (doi:10.1021/je700350b)
± gives the expanded uncertainty stated by the source.

How the values were obtained:
[1] = 101.33 kPa, Liquid, Vibrating tube method
[2] = xn = mol fraction of the nth substance listed; conditions: x2 = 0; for surface tension liquid-gas: Ring tensiometer; for viscosity: 101.33 kPa, Liquid

Row | SMILES | mass density ([1]; 293.15 K) [kg/m3] | mass density ([1]; 298.15 K) [kg/m3] | surface tension liquid-gas ([2]; 283.15 K) [mN/m] | surface tension liquid-gas ([2]; 288.15 K) [mN/m] | surface tension liquid-gas ([2]; 293.15 K) [mN/m] | surface tension liquid-gas ([2]; 298.15 K) [mN/m] | viscosity ([2]; 298.15 K) [mPa·s] | surface tension liquid-gas ([2]; 303.15 K) [mN/m] | viscosity ([2]; 303.15 K) [mPa·s]
1 | CCN(CC)CCO [(diethylamino)ethanol] | 884.14 ± 0.3 | 879.5 ± 0.3 |  |  |  |  |  |  | 
2 | O [water] + CCN(CC)CCO |  |  | 73.74 ± 2.3 | 73.14 ± 2.2 | 72.59 ± 2.2 | 71.84 ± 2.2 | 0.89 ± 0.014 | 71.2 ± 0.98 | 0.794 ± 0.013
